In patent publication US20250346938A1, “ATP-DEPENDENT C-TERMINAL MODIFICATION OF POLYPEPTIDES” (Wisconsin Alumni Research Foundation, priority 2024, published 2025):

Legend:
Ubc9 = target: T1, Ubc9 (Homo sapiens, UniProt P63279); assay: Ubc9-catalyzed lysine acylation (LACE) of GFP-LACE-tag with MccB-generated thioesters; assay type: biochemical
T1 construct: Ubc9; Calc: 20,632 Da (M et loss); Observed: 20,632 Da, 20,810 Da (N-gluconylation); made in house; host or cells: E. coli BL21 (DE3)
Description: For larger scale synthesis of MLGLRGG-Mes (HsLACE3-M es) (SEQ ID NO: 88), identical reaction conditions and reagent concentrations were used in a volume of […]. Reactions were quenched by addition of trifluoroacetic acid (TFA) to 1% final concentration and were desalted on SOLA HRP C18 solid-phase extraction columns (10 mg format, Thermo Fisher Scientific). Columns were conditioned with 100% acetonitrile ([…]) and equilibrated with 0.1% TFA (2× 1 mL). The acidified sample was then loaded onto the column. The column was washed with 0.1% TFA (2×1 mL) and eluted with 80% acetonitrile/20% water ([…]). The eluted peptide thioester was dried in a vacuum concentrator (SpeedV ac SPD 130DLX, Thermo Fisher Scientific) and dissolved in water. The recovered peptide was quantified using the Pierce Quantitative Fluorometric Peptide A ssay Kit (Thermo Fisher Scientific). Typical recovery from desalting was 50%.
Lysine acylation using conjugating enzymes (LACE) of GFP-LACE-tag using M ccB-generated thioesters. GFP-LACE-tag ([…]), U bc9 ([…]), MLGLRGG-Mes (SEQ ID NO: 88) or other C-terminal thioesters as indicated in the text ([…]) were incubated in reaction buffer (100 mM HEPES, pH 8.0, 50 mM K CI) at 30° C. for 16 h. For pH optimization, reaction buffer was either 100 mM HEPES, pH 7.6, 50 mM KCl or 100 mM HEPES, pH 8.0, 50 mM KCl. […]

M ccB [1] = assay: MccB-catalyzed C-terminal thioesterification / Cys ligation of TeCH-tag fusion proteins (intact protein LC-MS); assay type: biochemical, E. coli
Description: M ccB-mediated ligation of GFP-MccA-N7G protein substrates. GFP-M ccA-N7G variant (50 μM) was incubated with 5 μM MccB, 5 mM ATP, and the appropriate concentration of cysteine or Mesna/TCEP in reaction buffer (25 mM Tris pH 8.0, 10 mM M gCl2). Reactions were incubated at room temperature for the indicated times. For labeling time course experiments, reactions were quenched with the addition of an equivalent volume of 0.6% TFA.

M ccB [2] = assay: One-pot expressed protein ligation of GFP-TeCH with N-terminal Cys peptide CGAGS-azidoAla; assay type: biochemical, E. coli; settings: MccB, ATP, Mesna
LjM ccB = assay: C-terminal thioesterification of MccA-N7G peptides by L. johnsonii MccB (LC-MS); assay type: biochemical; settings: LjMccB, ATP, Mesna, within 16 h
Chain of LjM ccB (as listed by the source): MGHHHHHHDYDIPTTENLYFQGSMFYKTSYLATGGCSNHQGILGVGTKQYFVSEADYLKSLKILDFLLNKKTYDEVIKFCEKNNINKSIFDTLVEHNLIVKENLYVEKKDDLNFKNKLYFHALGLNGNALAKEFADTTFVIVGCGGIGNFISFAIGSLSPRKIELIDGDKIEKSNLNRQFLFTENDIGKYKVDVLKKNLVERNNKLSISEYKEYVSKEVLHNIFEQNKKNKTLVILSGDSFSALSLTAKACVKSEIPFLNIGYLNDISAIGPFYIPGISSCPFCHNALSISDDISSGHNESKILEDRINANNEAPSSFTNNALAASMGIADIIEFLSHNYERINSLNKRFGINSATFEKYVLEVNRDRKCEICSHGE

E. coli M ccB [3] = assay: Enzyme-coupled pyrophosphate (PPi) release assay, E. coli MccB; assay type: biochemical
Excerpt: FIG. 31. Enzyme-coupled pyrophosphate assay for detection of M ccB-catalyzed pyrophosphate release. M ccB-catalyzes release of pyrophosphate, which is converted to phosphate by inorganic pyrophosphatase (PPiase). Purine nucleoside phosphorylase (PN Pase) uses phosphate as a substrate to convert 2-amino-6-mercapto-7-methylpurine ribonucleoside (M ESG) to ribose 1-phosphate and 2-amino-6-mercapto-7-methylpurine, which absorbs at 360 nm.
Purine nucleoside phosphorylase (PNP)/inorganic pyrophosphate (IP)-coupled kinetic assays. The kinetics of M ccB-catalyzed adenylation were characterized using an enzyme-coupled assay for detecting formation of pyrophosphate EnzCheck Pyrophosphate Assay Kit (Thermo Fisher Scientific) (FIG. 31). To screen M ccB for adenylation activity with C-terminal variants of MccA, 5 μM of the appropriate MccB variant was incubated with 0.25 mM of each M ccA variant in a reaction with 0.25 mM ATP, 5 mM M gCl2, 0.5 U/mL purine nucleoside phosphorylase (PNP), and 0.5 U/mL inorganic pyrophosphatase (IP). To screen E. coli, H. pylori, and L. johnsonii M ccB homologs for adenylation activity with MccA homologs, 5 μM of the appropriate MccB enzyme was incubated with 0.25 mM of each M ccA variant in a reaction with 0.25 mM ATP, 5 mM M gCI2, 0.5 U/mL purine nucleoside phosphorylase (PNP), and 0.5 U/mL inorganic pyrophosphatase (IP). Reactions containing HpM ccA-N7G and LjM ccA-N 7G peptides also contained 5 mM M esna and 5 mM TCEP. To collect steady-state kinetics data for individual peptide substrates, the peptide concentration was varied from 0-600 μM in a reaction with 5 μM MccB, 0.25 mM ATP, 5 mM MgCl2, 0.5 U/mL purine nucleoside phosphorylase (PNP), and 0.5 U/mL inorganic pyrophosphatase (IP). […] We therefore repeated measurements for the MccA-N7G peptide using an MccB concentration of […] and a substrate concentration range from 0-100 μM. Reactions were initiated with the addition of M ccB and absorbance at 360 nm was monitored using a Tecan Infinite M 200 plate reader. Initial rates of pyrophosphate production were calculated based on the initial rate of absorbance change and the resulting purine analog extinction coefficient (11,000 M-1 cm-1). Reactions were carried out in triplicate and data analysis was performed using GraphPad Prism 10.

M ccB [4] = assay: MccB-catalyzed native chemical ligation of MccA-N7G with Mesna and Cys-Trp; assay type: biochemical, E. coli; settings: both Mesna and Cys-Trp in the reaction, 4 hours
Description: MccA-N7G thioester exchange with N-terminal Cys peptide. C-terminal thioester was prepared in reactions containing 250 μM MccA-N7G, 5 μM MccB, 5 mM ATP, and 5 mM Mesna/TCEP in reaction buffer (25 mM Tris pH 8.0, 10 mM M gCl2). A fter incubating for 16 hours at room temperature, 20 mM Cys-Trp peptide was added to each reaction and incubated for an additional 4 hours. Reactions were quenched with the addition of an equivalent volume of 0.6% TFA.

E. coli M ccB [5] = assay: LC-TOF MS analysis of MccB-catalyzed AMPylation of MccA variants; assay type: biochemical; settings: HPLC-MS assay
Description: LC-TOF MS analysis of M ccB reactions with synthetic peptide substrates. […] Reactions were incubated for 16 hours at room temperature and quenched with addition of an equivalent volume of 0.6% TFA. These reaction conditions were used for M ccBs from E. coli, H. pylori, L. johnsonii, and H. somni.
LC-TOF MS analysis of M ccB-catalyzed N-AM Pylation of M ccA positional scanning peptide library. MccA variants were synthesized individually in-house (according to Solid-phase peptide synthesis) or were purchased from Peptide2.0. […] Reactions were incubated for 16 hours at room temperature and quenched with addition of an equivalent volume of 0.6% TFA. […] Percent conversion was calculated using peak areas from substrate and product EICs. Raw data are available in the Dryad repository at DOI: 10.5061/dryad.c59zw3rkb.

[6] = target: T2, MccA-N7G (E. coli TeCH-tag peptide MRTGNAG)
T2 chain: MRTGNAG

T1 sequence (P63279 with tags, fused parts or gaps): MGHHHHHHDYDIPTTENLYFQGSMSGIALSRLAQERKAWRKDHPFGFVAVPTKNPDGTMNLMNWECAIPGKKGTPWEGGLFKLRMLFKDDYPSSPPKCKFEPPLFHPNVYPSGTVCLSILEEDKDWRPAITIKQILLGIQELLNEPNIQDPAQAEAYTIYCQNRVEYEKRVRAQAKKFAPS

MLGLRGG (listed as Histophilus somni) [HsLACE3]
modification of the LACE-tagged protein (Ubc9; HsMccB-generated thioester after C18 spin column thiol removal): 94% | conversion to modified GFP-LACE (Ubc9; one-pot and telescoped HsMccB/Ubc9 reactions): 1-15%

GFP-TeCH-tag: Cys-free GFP fused to MccA-N7G TeCH-tag (SEQ ID NO: 73)
conversion to the Mesna thioester (M ccB [1]; 5 mM Mesna, 5 mM ATP, 30 min): near-quantitative | Cys ligation yield (M ccB [1]; ATP (5 mM), Cys (5 mM), 1 h): 99% | time to complete conversion to thioester (M ccB [1]; ATP (5 mM), Mesna (5 mM)): 1 h | modification with azide-bearing peptide CGAGS-3-azido-Ala (M ccB [2]): quantitatively modified

MHRIM KG (MHRIMKG) [LjM ccA-N7G]
conversion to C-terminal thioester, yield (LjM ccB): > 97%

MRTGNAG [MccA-N7G]
stimulation of PPi formation (E. coli M ccB [3]; MccA C-terminal variant as substrate for MccB): substantial stimulation | Km (E. coli M ccB [3]; initial fitting, 5 μM MccB, peptide 0-600 μM, pyrophosphate release, read-out: apparent KM): 8.9 µM | conversion to MccA-N7G-CW, yield (M ccB [4]): 82% | formation of stably AMPylated product (E. coli M ccB [5]): no stably A M Pylated product was observed

B1: E. coli MccB (protein)
chain: MGHHHHHHDYDIPTTENLYFQGSMDYILGRYVKIARYGSGGLVGGGGKEQYVEDLALWENIIKTAYCFITPSSYTAALETVNIPEKDFSNCFRFLKENFFIIPSEYNNSTENNRYSRNFLHYQSYGANPVLVQDKLKDAKVVILGCGGIGNHVSVILATSGIGEIILIDNDQIENTNLTRQVLFSENDVGKNKTEVIKRELLKRNSEISVSEIALNINDYTDLHKVPEADIWVVSADHPFNLINWVNKYCVRANQPYINAGYVNDIAVFGPLYVPGKTGCYECQKVVADLYGSEKENIDHKIKLINSRFKPATFAPVNNVAAALCAADVIKFIGKYSEPLSLNKRIGIWSDEIKIHSQNMGRSPVCSVCGNRM
apparent KM, enzyme-coupled pyrophosphate release assay (steady-state kinetics) [6]: 8.9 ± 0.9 µM
